Measurements published in patent publication US12459951B2, “Compounds that interact with RAS superfamily proteins for treatment of cancers, inflammatory diseases, rasopathies, and fibrotic disease” (SHY Therapeutics, LLC, priority 2022, dated 2025).

Legend:
JNK phosphorylation = test: JNK Activation Assay (western blot), Panc-1; assay type: cell-based, human; settings: at 10 μM, Panc-1 pancreatic cancer cell line; starred symbols = activation
Procedure: Protocol for JNK Activation Assay
This assay is referred to as the “JNK Activation Assay” throughout this application.
Cell lines: Human tumor-derived pancreatic cancer cell line Panc-1 (expressing KRas […] mutant) was purchased from American Type Culture Collection and grown in complete DMEM-High Glucose medium, supplemented with penicillin (100 U/mL), streptomycin (100 μg/mL), and 10% heat-inactivated FBS at 37° C. in a humidified incubator with 5% CO2.
Method 1: Cells were plated at 350000 cells/well density in a 12-well plate, allowed 3 hours to adhere to the plate, then starved in the appropriate medium in the presence of 0.5% FBS overnight. The small molecules to be tested were added to the cells in the final concentration of 10 μM in the presence of 0.3% DMSO for 6 hours incubation at 37° C. For IC50 value determination, serial dilutions of compounds were added to cells under the same conditions. Next, cells were stimulated with 1.5 ng/ml EGF for 15 minutes then cells were lysed with lysis buffer containing 1% Triton X-100, EDTA, and Halt™ Protease & Phosphatase Inhibitor Cocktail (Thermo Scientific). Protein concentration was assessed by BCA protein assay (Thermo Scientific). Phosphorylation level of JNK was determined by western blot.
Method 2: Cells were plated at 350000 cells/well density in a 12-well plate in the presence of 10% FBS. The next day small molecules to be tested were added to the cells in the final concentration of 10 μM in the presence of 0.3% DMSO for 6 hours incubation at 37° C. For IC50 value determination, serial dilutions of compounds were added to cells under the same conditions. Next, cells were lysed with lysis buffer containing 1% Triton X-100, EDTA, and Halt™ Protease & Phosphatase Inhibitor Cocktail (Thermo Scientific). Protein concentration was assessed by BCA protein assay (Thermo Scientific). Phosphorylation level of JNK was determined by western blot.
(§1) Western blot protocol: Equal amounts of protein (15-50 μg) were separated by SDS-PAGE and transferred to nitrocellulose membranes (Invitrogen by Thermo Fisher Scientific). The membrane was stained with Ponceau S Stain (Boston BioProducts) to verify uniform protein loading. Membranes were blocked with 10% milk and phosphorylation levels of JNK were assessed by incubating overnight at 4° C. with the antibody Phospho-SAPK/JNK (Thr183/Tyr185), from Cell Signaling Technology. Then the membranes were incubated with HRP-conjugated secondary antibody (Jackson Immunoresearch, West Grove, PA). Bands were incubated in Amersham ECL Prime Western Blotting Detection Reagent (GE Healthcare) and visualized using the ChemiDoc MP imaging system (Bio-Rad).

Rheb = target: T1, Rheb (Homo sapiens, UniProt Q15382); test: Rheb GTP Binding Domain Inhibition Assay; settings: read-out: Rheb: % inh.
T1 construct: made in house
T1 sequence (Q15382 whole entry, the tested form may be a part): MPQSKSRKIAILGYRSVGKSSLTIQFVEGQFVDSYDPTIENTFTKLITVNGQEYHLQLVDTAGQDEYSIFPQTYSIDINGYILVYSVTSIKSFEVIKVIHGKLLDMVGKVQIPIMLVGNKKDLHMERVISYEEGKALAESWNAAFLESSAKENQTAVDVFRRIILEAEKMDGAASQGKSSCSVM
Procedure: Protocol for Cdc42 and Rheb GTP Binding Domain Inhibition Assay
The following method was developed as specific assay for cdc42 and Rheb proteins.
• 25 mM Tris-HCl, pH 7.4 • 27 mM KCl • 137 mM NaCl • 1 mM MgCl2 • 1 mM DTT Buffer-II: • 50 mM Tris-HCl, pH 7.0 • 1 mM MgCl2 • 1 mM DTT
The small GTPases proteins cdc42 and Rheb were expressed as His-tagged proteins. For the assay, the cdc42 and Rheb purified small GTPases proteins were diluted in Buffer-I or Buffer-II to a final concentration of 10-30 μg/mL. 200 μL of each diluted protein was added to a nickel-coated 96-well plate and incubated overnight at […]. Then the protein solution was discarded and 200 μL of Buffer-I or Buffer-II was added to each well in the presence of 1% DMSO. Compounds to be tested were added to the protein-coated wells at final concentration of 20 μM, and incubated for 3 hours at room temperature with and without 10-30 μg/mL of Sos added to the final hour of the incubation. When performing IC50 measurements a serial dilution of all tested concentrations was added. Then Cy3-GTP or Cy5-GTP was added to each well to a final concentration of 100 nM. The labeled GTP was incubated for 45 minutes at room temperature. Following GTP incubation, wells were washed 3× in Buffer-I or Buffer-II and 200 μL of Buffer-I or Buffer-II was added to each well. Following washes, the amount of bound labeled-GTP was measured using a SpectraMax M3 (Molecular Devices).

PUMA expression = test: Cell-based Puma expression assay (western blot); set-up: species or system human
Procedure: Biological Example 4: Puma Expression and Caspases Activation Assay
Protocols for Cell-Based Puma Expression and Caspase Activation Assays
Cell lines: All human tumor-derived cancer cell lines were purchased from American Type Culture Collection. Human tumor-derived cancer cell lines Panc-1 (expressing KRas G12D mutant), MiaPaca-2 (expressing KRas G12C mutant), A549 (expressing KRas G12S mutant), and A375 (expressing wild type KRas) were grown in complete DMEM-High Glucose medium and NCI-H1975 (expressing wild type KRas), MM.1R (expressing wild type KRas) and IM.9 (expressing wild type KRas) were grown in RPMI1640 medium. Human tumor-derived cancer cell line BT-549 (expressing wild type KRas) was grown in RPMI1640 medium with 11.8U insulin. All mediums were supplemented with penicillin (100 U/mL), streptomycin (100 μg/mL), and 10% heat-inactivated FBS at 37° C. in a humidified incubator with 5% CO2.
Method: Cells were plated at 300,000 to 800,000 cells/well density in a 6-well plate in the presence of 10% FBS. The next day small molecules to be tested were added to the cells in the final concentration of 3 μM in the presence of 0.3% DMSO for 48 hours incubation at 37° C. For IC50 value determination, serial dilutions of compounds were added to cells under the same conditions. Following 48 hours of incubation cells were lysed with lysis buffer containing 1% Triton X-100, EDTA, and Halt™ Protease & Phosphatase Inhibitor Cocktail (Thermo Scientific). Protein concentration was assessed by BCA protein assay (Thermo Scientific). Increase expression of PUMA and active/cleaved forms of caspase 3, caspase 6 and caspase 9 were detected by western blot.
as §1, with “expression” for “phosphorylation”, “PUMA was” for “JNK were”, “PUMA (D30C10)” for “Phospho-SAPK/JNK (Thr183/Tyr185),”, “Technology (#12450) and active/cleaved forms of caspase 3, caspase 6 and caspase 9 by incubating overnight at 4° C. with the following antibodies: cleaved caspase-3 (Asp175) (5A1E), cleaved caspase-6 (Asp162) and cleaved caspase-9 (Asp330) (D2D4) (all antibodies from Cell Signaling Technology).” for “Technology.”

| inhibition at 20 µM (Rheb) [%] | SMILES | % inh of JNK in Panc-1 (JNK phosphorylation) | Increased PUMA expression (PUMA expression; MiaPaca2, after 48 hours) | further results |
| --- | --- | --- | --- | --- |
|  | CO[C@H]1CC[C@@H](Nc2nc(-c3ccccn3)nn3cc(-c4ccn(C(C)C)n4)c(C)c23)C1 (racemic) [Compound 9, rac 6-(1-Isopropyl-1H-pyrazol-3-yl)-N-((1R,3S)-3-methoxycyclopentyl)-5-methyl-2-(pyridin-2-yl)pyrrolo[2,1-f][1,2,4]triazin-4-amine] | F* (F* = 31-74% activation) |  |  |
| 76 to 100 | COc1cc(Nc2nc(-c3nccn3C)nn3cc(-c4ccn(C(C)C)n4)c(C)c23)ncn1 [Compound 6, 6-(1-Isopropyl-1H-pyrazol-3-yl)-N-(6-methoxypyrimidin-4-yl)-5-methyl-2-(1-methyl-1H-imidazol-2-yl)pyrrolo[2,1-f][1,2,4]triazin-4-amine] | H* (H* ≥ 100% activation) | yes | Increased PUMA expression (PUMA expression; A549, after 48 hours): yes; Increased PUMA expression (PUMA expression; BT-549, after 48 hours): yes |
|  | Cc1c(-c2ccn(C(C)C)n2)cn2nc(-c3ccccn3)nc(O)c12 [Compound 8, 6-(1-Isopropyl-1H-pyrazol-3-yl)-5-methyl-2-(pyridin-2-yl)pyrrolo[2,1-f][1,2,4]triazin-4-ol] | E* (E* = 1-30% activation) |  |  |
| 76 to 100 | Cc1c(-c2ccn(C(C)C)n2)cn2nc(-c3nccn3C)nc(Nc3nccn3C)c12 [Compound 93, 6-(1-Isopropyl-1H-pyrazol-3-yl)-5-methyl-N,2-bis(1-methyl-1H-imidazol-2-yl)pyrrolo[2,1-f][1,2,4]triazin-4-amine] | H* (H* ≥ 100% activation) |  |  |
| 26 to 49 | COc1cc(Nc2nc(-c3nccn3C)nn3cc(-c4ccccn4)c(C)c23)ncn1 [Compound 94, N-(6-Methoxypyrimidin-4-yl)-5-methyl-2-(1-methyl-1H-imidazol-2-yl)-6-(pyridin-2-yl)pyrrolo[2,1-f][1,2,4]triazin-4-amine] |  |  |  |
| 50 to 75 | COc1ccnc(Nc2nc(-c3nccn3C)nn3cc(-c4ccn(C(F)F)n4)c(C)c23)n1 [Compound 95, 6-(1-(Difluoromethyl)-1H-pyrazol-3-yl)-N-(4-methoxypyrimidin-2-yl)-5-methyl-2-(1-methyl-1H-imidazol-2-yl)pyrrolo[2,1-f][1,2,4]triazin-4-amine] |  |  |  |
|  | COc1ccnc(Nc2nc(-c3nccn3C)nn3cc(-c4ccn(C)n4)c(C)c23)c1 [Compound 102, N-(4-Methoxypyridin-2-yl)-5-methyl-2-(1-methyl-1H-imidazol-2-yl)-6-(1-methyl-1H-pyrazol-3-yl)pyrrolo[2,1-f][1,2,4]triazin-4-amine] |  | yes | Increased PUMA expression (PUMA expression; A549, after 48 hours): yes |
|  | Cc1c(-c2ccn(C)n2)cn2nc(-c3nccn3C)nc(Nc3cc4n(n3)CCO4)c12 [Compound 124, N-(5-Methyl-2-(1-methyl-1H-imidazol-2-yl)-6-(1-methyl-1H-pyrazol-3-yl)pyrrolo[2,1-f][1,2,4]triazin-4-yl)-2,3-dihydropyrazolo[5,1-b]oxazol-6-amine] |  | yes | Increased PUMA expression (PUMA expression; HCC1806, after 48 hours): yes; Increased PUMA expression (PUMA expression; NCI-H358, after 48 hours): yes |
